Results as given in patent US4981854A, “A-aryl-4-quinolone-3-carboxylic acids” (Bayer Aktiengesellschaft, priority 1985, dated 1991).
≈ marks a conversion by molar mass, not a printed value.

Assays:
Experiment in all cases: Minimum inhibitory concentration, agar dilution test (Denley Multipoint inoculator, Isosensitest medium)
Format in all cases: cell-based
[1] = tested on: Staphylococcus aur. 1756
From the text: (§1) The MIC values of some of the compounds according to the invention are given in the following table. | Minimum inhibitory concentration mcg/ml^(x) | ^(x) Agar dilution test/Denley Multipoint inoculator Isosensitest | medium

[2] = tested on: E. coli 4418; details: Escherichia coli
From the text: as §1

[3] = tested on: Streptococcus faecalis 27101; details: Enterococcus faecalis
From the text: as §1

[4] = tested on: E. coli Neum.; details: Escherichia coli
From the text: as §1

[5] = tested on: Pseudomonas aerug. W.
From the text: as §1

[6] = tested on: Klebsiella spec. 6179
From the text: as §1

[7] = tested on: Proteus vulg. 1017
From the text: as §1

[8] = tested on: E. coli 455/7; details: Escherichia coli
From the text: as §1

[9] = tested on: Klebsiella pneum. 63
From the text: as §1

[10] = tested on: Staphylococcus aur. 133
From the text: as §1

[11] = tested on: Klebsiella pneum. 8085
From the text: as §1

MIC [1]	MIC [2]	MIC [3]	MIC [4]	MIC [5]	MIC [6]	MIC [7]	MIC [8]	MIC [9]	MIC [10]	MIC [11]	Structure (SMILES)
0.5 µg/mL (≈ 1.2 µM)	0.25 µg/mL (≈ 0.599 µM)	4 µg/mL (≈ 9.58 µM)	0.125 µg/mL (≈ 0.299 µM)	8 µg/mL (≈ 19.2 µM)	0.5 µg/mL (≈ 1.2 µM)	0.5 µg/mL (≈ 1.2 µM)	16 µg/mL (≈ 38.3 µM)	0.25 µg/mL (≈ 0.599 µM)	0.5 µg/mL (≈ 1.2 µM)	0.125 µg/mL (≈ 0.299 µM)	CN1CCN(c2c(F)cc3c(=O)c(C(=O)O)cn(-c4ccc(F)cc4)c3c2F)CC1 [Example 1, 6,8-Difluoro-1,4-dihydro-4-oxo-1-(4-fluorophenyl)-7-(4-methyl-1-piperazinyl)-quinoline-3-carboxylic acid]
0.5 µg/mL (≈ 1.2 µM)	0.125 µg/mL (≈ 0.299 µM)	4 µg/mL (≈ 9.58 µM)	~0.015 µg/mL (≈ 0.0359 µM)	4 µg/mL (≈ 9.58 µM)	0.25 µg/mL (≈ 0.599 µM)	0.25 µg/mL (≈ 0.599 µM)	8 µg/mL (≈ 19.2 µM)	0.125 µg/mL (≈ 0.299 µM)	0.5 µg/mL (≈ 1.2 µM)	0.06 µg/mL (≈ 0.144 µM)	CC1CN(c2c(F)cc3c(=O)c(C(=O)O)cn(-c4ccc(F)cc4)c3c2F)CCN1 (centres unmarked) [Example 2, 6,8-Difluoro-1,4-dihydro-4-oxo-1-(4-fluorophenyl)-7-(3-methyl-1-piperazinyl)-quinoline-3-carboxylic acid]
0.25 µg/mL (≈ 0.62 µM)	0.06 µg/mL (≈ 0.149 µM)	4 µg/mL (≈ 9.92 µM)	~0.015 µg/mL (≈ 0.0372 µM)	1 µg/mL (≈ 2.48 µM)	0.06 µg/mL (≈ 0.149 µM)	0.03 µg/mL (≈ 0.0744 µM)	8 µg/mL (≈ 19.8 µM)	0.06 µg/mL (≈ 0.149 µM)	0.25 µg/mL (≈ 0.62 µM)	~0.015 µg/mL (≈ 0.0372 µM)	O=C(O)c1cn(-c2ccc(F)cc2)c2c(F)c(N3CCNCC3)c(F)cc2c1=O [Example 3, 6,8-Difluoro-1,4-dihydro-4-oxo-1-(4-fluorophenyl)-7-(1-piperazinyl)-quinoline-3-carboxylic acid]
1 µg/mL (≈ 3.13 µM)	0.125 µg/mL (≈ 0.391 µM)	1 µg/mL (≈ 3.13 µM)	0.125 µg/mL (≈ 0.391 µM)	2 µg/mL (≈ 6.26 µM)	2 µg/mL (≈ 6.26 µM)	0.06 µg/mL (≈ 0.188 µM)	8 µg/mL (≈ 25.1 µM)	0.25 µg/mL (≈ 0.783 µM)	1 µg/mL (≈ 3.13 µM)	0.25 µg/mL (≈ 0.783 µM)	CCn1cc(C(=O)O)c(=O)c2cc(F)c(N3CCNCC3)cc21 [Norfloxacin, reference compound]
